Assays:
AhR = target: T1, AhR (Homo sapiens, UniProt P35869); details: in humans; cited from earlier work
T1 sequence (P35869 11-848): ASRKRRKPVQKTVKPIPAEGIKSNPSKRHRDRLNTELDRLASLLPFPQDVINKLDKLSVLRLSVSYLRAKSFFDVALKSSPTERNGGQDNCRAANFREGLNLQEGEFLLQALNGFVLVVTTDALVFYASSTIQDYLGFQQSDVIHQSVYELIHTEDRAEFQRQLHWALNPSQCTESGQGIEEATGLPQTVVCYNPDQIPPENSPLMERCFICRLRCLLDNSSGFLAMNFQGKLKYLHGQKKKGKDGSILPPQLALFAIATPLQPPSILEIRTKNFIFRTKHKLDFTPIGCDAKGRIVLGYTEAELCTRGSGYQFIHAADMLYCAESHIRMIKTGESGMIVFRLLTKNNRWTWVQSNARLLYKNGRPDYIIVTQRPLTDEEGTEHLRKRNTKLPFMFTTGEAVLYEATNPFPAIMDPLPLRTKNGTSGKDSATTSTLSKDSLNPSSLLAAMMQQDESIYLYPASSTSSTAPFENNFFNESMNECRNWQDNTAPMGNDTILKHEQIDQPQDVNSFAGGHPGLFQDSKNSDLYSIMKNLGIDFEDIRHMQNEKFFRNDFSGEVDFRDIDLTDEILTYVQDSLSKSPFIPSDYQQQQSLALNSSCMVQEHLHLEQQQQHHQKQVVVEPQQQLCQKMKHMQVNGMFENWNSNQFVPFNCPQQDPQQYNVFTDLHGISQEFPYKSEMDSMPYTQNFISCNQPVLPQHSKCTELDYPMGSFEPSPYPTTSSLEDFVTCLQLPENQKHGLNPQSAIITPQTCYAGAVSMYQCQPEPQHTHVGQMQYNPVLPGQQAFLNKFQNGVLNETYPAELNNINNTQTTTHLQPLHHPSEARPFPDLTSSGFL

CYP1A1/AHH = details: read-out: ED50 for induction of CYP1A1/AHH; porcine aortic endothelial; cited from earlier work
ER = target: T2, ER (Homo sapiens, UniProt P03372); assay: ER-mediated transactivation, ERE-driven Luciferase reporter stable cell line (MCF-7-Luc); assay type: cell-based; details: trans-stilbenes; also: key: Ago: agonist; N.M.: not measurable
T2 construct: stably transfecting MCF-7 cells with the ERE-globin-tk-luc-SV-Neo plasmid; endogenous in cells; host or cells: MCF-7-Luc (MCF-7 stably transfected with ERE-globin-tk-luc-SV-Neo)
T2 sequence (P03372 1-595): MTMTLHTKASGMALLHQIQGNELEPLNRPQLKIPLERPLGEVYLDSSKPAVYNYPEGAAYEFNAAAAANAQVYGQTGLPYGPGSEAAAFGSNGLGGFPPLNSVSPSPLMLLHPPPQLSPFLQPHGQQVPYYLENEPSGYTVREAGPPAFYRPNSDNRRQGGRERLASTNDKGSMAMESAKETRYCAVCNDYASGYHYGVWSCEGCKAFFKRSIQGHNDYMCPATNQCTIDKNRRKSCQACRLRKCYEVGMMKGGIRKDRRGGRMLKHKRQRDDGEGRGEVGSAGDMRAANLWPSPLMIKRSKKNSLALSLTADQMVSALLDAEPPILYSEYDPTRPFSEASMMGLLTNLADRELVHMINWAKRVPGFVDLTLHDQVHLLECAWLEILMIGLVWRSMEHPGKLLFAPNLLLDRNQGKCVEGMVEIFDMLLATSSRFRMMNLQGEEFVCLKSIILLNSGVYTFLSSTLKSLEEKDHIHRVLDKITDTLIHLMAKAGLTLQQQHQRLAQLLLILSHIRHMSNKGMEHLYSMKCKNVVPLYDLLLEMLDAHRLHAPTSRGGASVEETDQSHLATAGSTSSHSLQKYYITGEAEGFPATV
Procedure: The human adenocarcinoma breast cell line MCF-7 was obtained from the American Tissue Culture Collection (Rockville, USA). The cells were established by stably transfecting MCF-7 cells with the ERE-globin-tk-luc-SV-Neo plasmid and thus expressed luciferase in an estrogen dependent manner MCF-7-Luc. […] Cells were incubated at 37° C. in a humidified 5% CO2 incubator. For experiments, cells were grown for 5 days in phenol red-free medium, containing 5% dextran-coated charcoal treated FCS (DCC-FCS). Medium was changed after 2 days. At day 5, cells were treated or not with compounds. Compounds were dissolved in ethanol.
For each condition, 15.103 cells were seeded per well in 12-well plates and treated, as described above, during 16 hours in a final volume of 0.5 mL. At the end of the treatment, cells were washed with PBS and lysed in 150 μl of lysis buffer (Promega, Charbonnieres, France). Luciferase activity was measured using the luciferase assay reagent (Promega), according to the manufacturer's instructions. Protein concentrations were measured using Bradford technique, to normalize the luciferase activity data. For each condition, average luciferase activity was calculated from the data of 3 independent wells.

A549 cell line = assay: Cytotoxicity, MTT colorimetric assay; assay type: cell-based, human
Procedure: Cytotoxicity was evaluated on the A549 cell line. […] A MTT colorimetric assay was employed as described in (5) according to the established procedure 1. Drug stock solutions were prepared in EtOH and the final solvent concentration was=1% EtOH(v/v), a concentration without effect on cell replication. […] Cells were cultured at 37° C. in RPMI-1640 medium with streptomycin/penicillin and 5% (v/v) FCS in a humidified atmosphere containing 5% CO2. Initial seeding densities varied among the cell lines to ensure a final absorbance reading in control cultures in the range of 0.7-1 […] units. After the addition of the samples to the cell culture, the cells were incubated for 5 days before the MTT reagent was added. Each test was performed in duplicate and absorbance readings varied no more than 5%.

ER T.A. (transcriptional activity) (ER) | Compound | Kd (AhR) | EC50 (CYP1A1/AHH) | cytotoxicity: not toxic up to concentration (A549 cell line)
 | Clc1cc2c(cc1Cl)Oc1cc(Cl)c(Cl)cc1O2 [TCDD, 2,3,7,8-tetrachlorodibenzo-p-dioxin] | 1 nM | 0.015 nM | 
Ago | Oc1ccc(C=Cc2cc(O)cc(O)c2)cc1 [Resveratrol, 3,5,4′-trihydroxystilbene, reference compound] |  |  | > 10 µM
